For data set [1], the target named is T1, Muscarinic acetylcholine receptor M1 (Homo sapiens) (UniProt P11229).
T1 sequence (whole entry): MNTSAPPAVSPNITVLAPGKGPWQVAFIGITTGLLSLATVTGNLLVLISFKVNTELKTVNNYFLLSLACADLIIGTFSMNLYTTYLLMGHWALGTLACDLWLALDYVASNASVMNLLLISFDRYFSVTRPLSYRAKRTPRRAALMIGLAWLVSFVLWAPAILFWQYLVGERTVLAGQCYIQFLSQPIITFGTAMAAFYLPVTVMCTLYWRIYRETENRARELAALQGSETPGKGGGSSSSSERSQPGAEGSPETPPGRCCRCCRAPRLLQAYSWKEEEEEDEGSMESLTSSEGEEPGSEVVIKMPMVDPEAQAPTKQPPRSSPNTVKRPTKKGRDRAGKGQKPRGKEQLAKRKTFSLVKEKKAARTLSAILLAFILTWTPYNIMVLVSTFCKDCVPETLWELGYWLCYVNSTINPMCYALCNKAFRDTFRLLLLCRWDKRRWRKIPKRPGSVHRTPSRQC
As to conditions: Compound concentration 10.0 uM; call rule not given here.

In data set [2] the target is 5-hydroxytryptamine receptor 6 (Homo sapiens) (UniProt P50406). As to conditions: Compound concentration 10.0 uM.
5-hydroxytryptamine receptor 6 (Homo sapiens), sequence (P50406 whole entry): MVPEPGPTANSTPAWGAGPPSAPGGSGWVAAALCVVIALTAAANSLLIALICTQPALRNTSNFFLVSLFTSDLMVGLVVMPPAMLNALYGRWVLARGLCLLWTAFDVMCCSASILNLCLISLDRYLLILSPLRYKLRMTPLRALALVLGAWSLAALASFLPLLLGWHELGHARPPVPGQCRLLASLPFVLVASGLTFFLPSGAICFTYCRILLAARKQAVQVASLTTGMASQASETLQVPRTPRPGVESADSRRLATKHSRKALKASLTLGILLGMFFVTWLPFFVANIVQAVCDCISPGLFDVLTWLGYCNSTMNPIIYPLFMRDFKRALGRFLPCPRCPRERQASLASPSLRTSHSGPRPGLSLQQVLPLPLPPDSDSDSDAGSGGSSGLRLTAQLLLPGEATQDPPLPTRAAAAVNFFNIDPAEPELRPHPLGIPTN
Data set [3] addresses T2, 5-hydroxytryptamine receptor 1A (Homo sapiens) (UniProt P08908).
T2 sequence (whole entry): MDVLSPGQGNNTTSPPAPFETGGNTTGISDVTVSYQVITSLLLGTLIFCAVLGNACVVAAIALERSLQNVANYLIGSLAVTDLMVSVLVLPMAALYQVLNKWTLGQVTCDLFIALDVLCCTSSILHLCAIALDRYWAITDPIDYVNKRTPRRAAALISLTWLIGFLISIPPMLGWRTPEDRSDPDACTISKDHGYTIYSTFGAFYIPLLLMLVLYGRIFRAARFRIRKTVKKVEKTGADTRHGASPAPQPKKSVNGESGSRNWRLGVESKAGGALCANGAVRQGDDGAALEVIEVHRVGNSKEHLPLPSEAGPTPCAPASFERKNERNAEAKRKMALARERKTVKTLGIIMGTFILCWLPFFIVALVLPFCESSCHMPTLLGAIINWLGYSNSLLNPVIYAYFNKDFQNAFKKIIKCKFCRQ
As to conditions: Compound concentration 10.0 uM.

In data set [4] the target is D(1A) dopamine receptor (Homo sapiens) (UniProt P21728). As to conditions: Compound concentration 10.0 uM.
D(1A) dopamine receptor (Homo sapiens), sequence (P21728 whole entry): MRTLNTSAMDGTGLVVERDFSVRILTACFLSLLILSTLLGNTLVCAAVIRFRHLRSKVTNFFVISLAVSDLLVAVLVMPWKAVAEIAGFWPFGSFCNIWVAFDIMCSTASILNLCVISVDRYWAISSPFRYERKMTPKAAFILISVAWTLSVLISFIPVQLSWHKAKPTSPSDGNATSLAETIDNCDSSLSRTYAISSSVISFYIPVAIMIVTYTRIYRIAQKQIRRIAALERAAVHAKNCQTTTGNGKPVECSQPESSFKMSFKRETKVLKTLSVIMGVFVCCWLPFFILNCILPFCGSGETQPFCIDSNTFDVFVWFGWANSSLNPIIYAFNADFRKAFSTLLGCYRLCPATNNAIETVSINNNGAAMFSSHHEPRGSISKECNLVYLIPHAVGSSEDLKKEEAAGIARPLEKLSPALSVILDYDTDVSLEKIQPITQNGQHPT
The target in data set [5] is 5-hydroxytryptamine receptor 2C (Homo sapiens) (UniProt P28335). As to conditions: Compound concentration 10.0 uM.
5-hydroxytryptamine receptor 2C (Homo sapiens), sequence (P28335 whole entry): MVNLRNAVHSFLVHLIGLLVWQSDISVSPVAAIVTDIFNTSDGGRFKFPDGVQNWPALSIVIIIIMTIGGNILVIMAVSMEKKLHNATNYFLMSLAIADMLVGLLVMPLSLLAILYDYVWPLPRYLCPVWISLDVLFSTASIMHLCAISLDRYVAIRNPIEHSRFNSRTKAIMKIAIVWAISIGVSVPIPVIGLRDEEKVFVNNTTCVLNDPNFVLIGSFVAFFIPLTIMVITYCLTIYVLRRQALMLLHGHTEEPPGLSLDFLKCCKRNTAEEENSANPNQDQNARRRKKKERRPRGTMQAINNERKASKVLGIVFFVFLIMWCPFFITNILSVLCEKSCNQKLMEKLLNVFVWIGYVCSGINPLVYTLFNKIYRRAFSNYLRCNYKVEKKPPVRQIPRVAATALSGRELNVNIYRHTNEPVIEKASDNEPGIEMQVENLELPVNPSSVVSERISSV
The target of data set [6] is D(2) dopamine receptor (Homo sapiens) (UniProt P14416). As to conditions: Compound concentration 10.0 uM.
D(2) dopamine receptor (Homo sapiens), sequence (P14416 whole entry): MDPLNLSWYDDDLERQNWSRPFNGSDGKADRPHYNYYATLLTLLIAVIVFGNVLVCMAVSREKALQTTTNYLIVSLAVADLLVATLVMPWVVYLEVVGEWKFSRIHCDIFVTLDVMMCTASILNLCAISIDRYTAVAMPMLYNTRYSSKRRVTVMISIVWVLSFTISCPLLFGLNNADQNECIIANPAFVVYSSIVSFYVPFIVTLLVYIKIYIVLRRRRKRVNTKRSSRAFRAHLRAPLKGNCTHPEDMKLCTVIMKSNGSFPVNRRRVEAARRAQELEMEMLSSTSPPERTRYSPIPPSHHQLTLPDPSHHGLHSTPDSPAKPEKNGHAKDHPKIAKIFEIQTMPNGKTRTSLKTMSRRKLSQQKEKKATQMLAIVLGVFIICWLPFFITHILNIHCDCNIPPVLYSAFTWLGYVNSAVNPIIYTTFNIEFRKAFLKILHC
The target of data set [7] is Sigma intracellular receptor 2 (Homo sapiens) (UniProt Q5BJF2). As to conditions: Compound concentration 10.0 uM.
Sigma intracellular receptor 2 (Homo sapiens), sequence (Q5BJF2 whole entry): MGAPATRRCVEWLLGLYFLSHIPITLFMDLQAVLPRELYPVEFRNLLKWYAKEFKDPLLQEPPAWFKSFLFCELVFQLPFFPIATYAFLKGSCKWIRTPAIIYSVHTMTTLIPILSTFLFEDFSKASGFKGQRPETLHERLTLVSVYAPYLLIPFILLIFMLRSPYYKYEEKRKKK
For another data set, the target named is hERG (KCNH2) (Homo sapiens, UniProt Q12809). Briefly: HERG_DOFETILIDE Eurofins SafetyScreen44 (BI). As to conditions: probe [3H]dofetilide, compound concentration 10 uM, read-out: % Ctrl.
hERG (KCNH2), sequence (Q12809 whole entry): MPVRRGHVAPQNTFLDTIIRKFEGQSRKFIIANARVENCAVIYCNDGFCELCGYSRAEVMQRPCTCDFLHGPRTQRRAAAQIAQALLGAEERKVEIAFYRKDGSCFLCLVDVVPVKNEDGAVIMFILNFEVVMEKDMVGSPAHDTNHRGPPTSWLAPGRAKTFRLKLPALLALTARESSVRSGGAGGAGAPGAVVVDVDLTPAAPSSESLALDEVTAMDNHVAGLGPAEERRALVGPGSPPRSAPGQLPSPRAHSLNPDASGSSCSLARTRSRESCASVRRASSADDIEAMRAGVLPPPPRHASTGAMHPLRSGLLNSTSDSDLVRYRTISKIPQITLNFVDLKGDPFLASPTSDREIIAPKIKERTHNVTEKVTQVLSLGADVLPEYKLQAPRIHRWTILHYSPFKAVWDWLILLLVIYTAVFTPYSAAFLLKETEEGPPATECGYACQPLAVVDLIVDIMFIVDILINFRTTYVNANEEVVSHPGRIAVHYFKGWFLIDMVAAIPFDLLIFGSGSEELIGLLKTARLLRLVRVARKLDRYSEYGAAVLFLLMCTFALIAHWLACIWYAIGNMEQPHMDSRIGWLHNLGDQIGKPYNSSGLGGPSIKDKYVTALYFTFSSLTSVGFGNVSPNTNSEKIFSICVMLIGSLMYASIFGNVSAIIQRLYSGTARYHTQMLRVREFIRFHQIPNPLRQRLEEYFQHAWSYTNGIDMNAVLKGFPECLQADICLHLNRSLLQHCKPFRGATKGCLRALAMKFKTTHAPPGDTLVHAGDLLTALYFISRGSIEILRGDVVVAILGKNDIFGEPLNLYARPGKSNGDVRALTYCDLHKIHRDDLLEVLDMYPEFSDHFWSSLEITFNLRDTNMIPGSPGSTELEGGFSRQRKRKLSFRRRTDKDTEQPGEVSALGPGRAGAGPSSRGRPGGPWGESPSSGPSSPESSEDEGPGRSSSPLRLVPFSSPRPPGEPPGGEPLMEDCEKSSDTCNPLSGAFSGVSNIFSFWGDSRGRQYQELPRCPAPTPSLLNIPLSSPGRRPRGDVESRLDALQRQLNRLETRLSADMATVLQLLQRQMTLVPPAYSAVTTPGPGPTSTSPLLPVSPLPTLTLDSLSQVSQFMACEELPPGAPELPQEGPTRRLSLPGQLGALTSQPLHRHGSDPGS
A further data set has as its target MAO-A (Rattus norvegicus, UniProt P21396). Briefly: MAO-A_ANTAG Eurofins SafetyScreen44 (BI). Also noted: scale not given: the % may be the effect or the level left. As to conditions: compound concentration 10 uM, read-out: % Ctrl.
Data set [8] addresses Beta-1 adrenergic receptor (Homo sapiens) (UniProt P08588). As to conditions: Compound concentration 10.0 uM.
Data set [9] concerns the target Beta-2 adrenergic receptor (Homo sapiens) (UniProt P07550). As to conditions: Compound concentration 10.0 uM.
The target in data set [10] is Kappa-type opioid receptor (Homo sapiens) (UniProt P41145). As to conditions: Compound concentration 10.0 uM.
Kappa-type opioid receptor (Homo sapiens), sequence (P41145 whole entry): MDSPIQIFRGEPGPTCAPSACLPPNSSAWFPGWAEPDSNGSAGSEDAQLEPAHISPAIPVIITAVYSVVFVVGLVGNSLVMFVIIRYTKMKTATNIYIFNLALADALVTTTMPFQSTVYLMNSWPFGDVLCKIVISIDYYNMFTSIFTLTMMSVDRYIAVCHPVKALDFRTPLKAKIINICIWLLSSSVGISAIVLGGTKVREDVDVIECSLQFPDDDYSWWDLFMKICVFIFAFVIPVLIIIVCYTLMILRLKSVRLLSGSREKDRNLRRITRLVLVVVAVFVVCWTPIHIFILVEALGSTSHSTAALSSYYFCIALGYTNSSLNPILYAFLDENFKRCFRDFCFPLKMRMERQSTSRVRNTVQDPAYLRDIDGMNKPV
The target in data set [11] is 17-beta-hydroxysteroid dehydrogenase 13 (Mus musculus, UniProt Q8VCR2). Briefly: Enzymatic assay (mHSD17B13). It counts as functional.

Where only a bound is given, the exact number is not on record here.

Beta-1 adrenergic receptor (Homo sapiens), sequence (P08588 whole entry, looked up): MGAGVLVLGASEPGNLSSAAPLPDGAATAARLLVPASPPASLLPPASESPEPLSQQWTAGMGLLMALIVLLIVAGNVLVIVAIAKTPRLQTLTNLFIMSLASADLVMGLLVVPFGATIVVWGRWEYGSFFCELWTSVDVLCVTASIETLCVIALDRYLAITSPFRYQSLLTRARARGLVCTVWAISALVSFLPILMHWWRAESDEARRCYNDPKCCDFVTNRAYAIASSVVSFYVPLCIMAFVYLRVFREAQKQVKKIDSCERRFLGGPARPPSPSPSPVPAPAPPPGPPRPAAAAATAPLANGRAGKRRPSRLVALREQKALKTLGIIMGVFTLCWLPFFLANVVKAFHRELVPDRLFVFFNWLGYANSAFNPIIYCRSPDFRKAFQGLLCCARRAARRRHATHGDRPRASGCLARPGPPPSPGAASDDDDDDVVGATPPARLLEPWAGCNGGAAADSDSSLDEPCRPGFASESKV
Beta-2 adrenergic receptor (Homo sapiens), sequence (P07550 whole entry, looked up): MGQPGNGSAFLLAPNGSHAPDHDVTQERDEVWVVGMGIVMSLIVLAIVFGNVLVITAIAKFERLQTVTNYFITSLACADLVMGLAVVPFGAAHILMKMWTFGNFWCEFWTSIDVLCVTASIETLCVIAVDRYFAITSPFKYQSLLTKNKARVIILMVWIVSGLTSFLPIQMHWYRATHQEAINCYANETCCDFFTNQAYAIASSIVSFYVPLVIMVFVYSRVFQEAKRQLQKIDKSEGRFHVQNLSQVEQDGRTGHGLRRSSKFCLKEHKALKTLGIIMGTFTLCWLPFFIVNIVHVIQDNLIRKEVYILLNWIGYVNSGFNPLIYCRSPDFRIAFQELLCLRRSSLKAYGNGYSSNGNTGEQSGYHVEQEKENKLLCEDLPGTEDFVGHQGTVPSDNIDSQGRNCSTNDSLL
MAO-A, sequence (P21396 whole entry): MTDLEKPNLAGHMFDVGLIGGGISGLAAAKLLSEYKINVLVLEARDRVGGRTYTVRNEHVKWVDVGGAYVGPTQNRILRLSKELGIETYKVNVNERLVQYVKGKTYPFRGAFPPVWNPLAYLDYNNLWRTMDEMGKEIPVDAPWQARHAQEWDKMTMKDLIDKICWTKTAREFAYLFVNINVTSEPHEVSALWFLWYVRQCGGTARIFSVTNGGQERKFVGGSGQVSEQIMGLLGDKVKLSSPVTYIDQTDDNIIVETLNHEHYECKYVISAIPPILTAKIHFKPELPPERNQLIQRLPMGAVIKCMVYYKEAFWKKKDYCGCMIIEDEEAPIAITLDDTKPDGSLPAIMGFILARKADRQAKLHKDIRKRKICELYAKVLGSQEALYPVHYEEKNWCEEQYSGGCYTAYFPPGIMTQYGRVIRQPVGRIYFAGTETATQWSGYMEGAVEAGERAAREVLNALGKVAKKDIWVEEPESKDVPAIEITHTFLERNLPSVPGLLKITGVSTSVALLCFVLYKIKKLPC

What is called inhibition is the relative decrease from the control value, in per cent. Turning to `CCn1c(=O)c(C)cn(Cc2nnc(-c3ccc(F)c(O)c3F)s2)c1=O`, the inhibition is 5.93% in data set [1]; 0.69% in data set [2]; 29.3% in data set [3]; -6.39% in data set [4]; -2.92% in data set [5]; -2.66% in [6].
Usually Ki stands for the dissociation constant of the complex between target and ligand, obtained from inhibition or displacement. In the case of `CCn1c(=O)c(C)cn(Cc2nnc(-c3ccc(F)c(OC)c3F)s2)c1=O`, the inhibition in [7] is -5.43%; in [8] it was -1.07%; in data set [9] it was 6.43%; in [10], 11.7%. Further, the activity at 10 µM at hERG (KCNH2) was 100% (not active); on MAO-A, 88% (not active). In addition, the inhibitory constant (Ki) in [11] is recorded as > 10 µM (not active).

Source of the values: ChEMBL document CHEMBL5303761, “Data for DCP probe BI-3231” (2023).
